Laboratory results: article PMC13534584, “ATP13A4 gates extracellular polyamine levels to control excitatory synaptogenesis” (Nature Communications, 2026)
Substitutions are numbered along the chain they refer to.

Assays:
Experiment in all cases: ADP-Glo Max ATPase assay, dose-response
Assay type in all cases: biochemical
Settings in all cases: 5 mM ATP, 11 mM MgCl2, 100 mM KCl, MOPS-KOH pH 7, 37 °C, 0.001% DDM
hATP13A4 [1] = target: T1, hATP13A4 (Homo sapiens, UniProt Q4VNC1)
T1 construct: gene ATP13A4; solubilised in DDM
T1 sequence (Q4VNC1 1-1196): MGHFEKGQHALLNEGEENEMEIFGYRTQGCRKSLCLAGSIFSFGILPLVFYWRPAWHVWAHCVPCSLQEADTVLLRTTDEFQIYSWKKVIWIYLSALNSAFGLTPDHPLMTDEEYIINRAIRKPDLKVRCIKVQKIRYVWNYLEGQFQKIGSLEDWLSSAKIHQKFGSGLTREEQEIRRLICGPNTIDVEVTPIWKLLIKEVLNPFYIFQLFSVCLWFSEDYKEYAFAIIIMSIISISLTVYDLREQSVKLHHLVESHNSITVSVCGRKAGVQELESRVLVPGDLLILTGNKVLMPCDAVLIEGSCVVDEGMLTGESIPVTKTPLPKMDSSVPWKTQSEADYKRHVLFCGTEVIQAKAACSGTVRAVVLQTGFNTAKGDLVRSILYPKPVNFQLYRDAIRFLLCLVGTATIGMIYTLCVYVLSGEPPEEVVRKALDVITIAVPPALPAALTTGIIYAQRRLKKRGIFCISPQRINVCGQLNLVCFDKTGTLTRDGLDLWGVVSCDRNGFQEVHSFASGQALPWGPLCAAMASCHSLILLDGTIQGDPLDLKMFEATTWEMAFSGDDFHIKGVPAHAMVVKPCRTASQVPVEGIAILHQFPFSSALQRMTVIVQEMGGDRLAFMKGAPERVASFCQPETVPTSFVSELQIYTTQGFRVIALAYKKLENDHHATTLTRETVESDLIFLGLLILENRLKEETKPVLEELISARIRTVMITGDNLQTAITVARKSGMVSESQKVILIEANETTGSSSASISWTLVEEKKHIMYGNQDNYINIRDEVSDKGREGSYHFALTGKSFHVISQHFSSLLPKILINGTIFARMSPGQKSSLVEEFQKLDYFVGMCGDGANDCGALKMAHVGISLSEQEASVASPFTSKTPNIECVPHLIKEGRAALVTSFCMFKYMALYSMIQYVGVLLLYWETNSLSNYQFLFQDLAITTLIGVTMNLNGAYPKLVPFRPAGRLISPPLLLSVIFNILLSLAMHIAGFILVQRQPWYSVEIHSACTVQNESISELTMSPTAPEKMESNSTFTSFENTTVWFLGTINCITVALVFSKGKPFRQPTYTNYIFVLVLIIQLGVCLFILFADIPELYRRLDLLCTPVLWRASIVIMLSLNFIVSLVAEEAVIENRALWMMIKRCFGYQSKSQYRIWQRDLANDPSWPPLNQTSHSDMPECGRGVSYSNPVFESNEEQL

hATP13A4 [2] = target: T2, hATP13A4 (Homo sapiens, UniProt Q4VNC1, A356V)
T2 construct: gene ATP13A4; solubilised in DDM
T2 sequence (Q4VNC1 1-1196 A356V): T1 sequence (Q4VNC1 1-1196) with A356V

hATP13A4 [3] = target: T3, hATP13A4 (Homo sapiens, UniProt Q4VNC1, E276K)
T3 construct: gene ATP13A4; solubilised in DDM
T3 sequence (Q4VNC1 1-1196 E276K): T1 sequence (Q4VNC1 1-1196) with E276K

Row | SMILES | ATPase stimulation (hATP13A4 [1]) | spermidine-dependent ATPase activity (hATP13A4 [2]) | spermidine-dependent ATPase activity (hATP13A4 [3])
1 | NCCCCCN [cadaverine] | Putrescine, spermidine, spermine, cadaverine, and acetylated polyamine derivatives each stimulated ATPase activity | – | –
2 | NCCCCNCCCN [SPD, spermidine] | each stimulated ATPase activity of purified wild-type (WT) hATP13A4 in a concentration-dependent manner | spermidine-dependent ATPase activity of purified, solubilized ATP13A4 (WT and disease-associated variants p.E276K, p.A356V | p.E276K reduces spermidine-stimulated ATPase activity to a similar extent as p.A356V and p.E646D
3 | NCCCNCCCCNCCCN [SPM, spermine] | ATP13A4 exhibits the highest apparent affinity for spermine and spermidine | – | –
